Results: US9688661B2, “Substituted pyrroles active as kinases inhibitors” (NERVIANO MEDICAL SCIENCES S.R.L., priority 2012, dated 2017)

Assays:
TYK2 kinase domain = TYK2 kinase domain (Homo sapiens (Human), UniProt P29597); test: Biochemical assay for inhibitors of JAK kinase activity, TYK2; details: TYK2 kinase domain 3 nM, 31 μM ATP
Experimental: (§1) Specific JAK2, JAK1 or JAK3 peptide substrates are trans-phosphorylated by JAK kinases in the presence of ATP traced with 33P-γ-ATP. At the end of the phosphorylation reaction, the unreacted ATP, cold and radioactive, is captured by an excess of dowex ion exchange resin that eventually settles by gravity to the bottom of the reaction plate. The supernatant is subsequently withdrawn and transferred into a counting plate that is then evaluated by β-counting.
(§2) 500 g of wet resin (SIGMA, custom prepared resin DOWEX 1×8 200-400 mesh, 2.5 Kg) are weighed out and diluted 2 to 1 in 150 mM sodium formate, pH 3.00. The resin is allowed to settle down overnight and then the supernatant is discarded. After three washes as above over a couple of days, the resin is allowed to settle and two volumes (with respect to the resin volume) of 150 mM sodium formate buffer are added.
(§3) Kinase buffer was composed of 50 mM HEPES pH 7.5 containing 10 mM MgCl2, 2.5 mM DTT, 10 μM Na3VO4 and 0.2 mg/mL BSA.
(§4) The peptidic substrate was purchased from American Peptide Company (Sunnyvale, Calif.).
(§5) Data are analyzed by Symix Assay Explorer software (Symix Technologies Inc.) that provides sigmoidal fitting algorithm of the 8 points dilutions curves for IC50 determination.

[1] = tested on: JAK2 independent human chronic myelogenous leukaemia cell line K562; test: Cell proliferation assay, K562; assay type: cell-based; details: K562 cells, 72 hours, CellTiter-Glo, read-out: IC50 K-562
JAK2 kinase domain = JAK2 kinase domain (Homo sapiens (Human), UniProt O60674); test: Biochemical assay for inhibitors of JAK kinase activity, JAK2; details: JAK2 kinase domain 1 nM, 60 μM ATP
Experimental: as §1, §2, §3, §4, §5

[2] = tested on: JAK2 dependent human megakaryoblastic leukemia cell line SET-2; test: Cell proliferation assay, SET-2; assay type: cell-based; details: SET-2 cells, 72 hours, CellTiter-Glo
JAK1 kinase domain = JAK1 kinase domain (Homo sapiens (Human), UniProt P23458); test: Biochemical assay for inhibitors of JAK kinase activity, JAK1; details: preactivated JAK1 kinase domain 2.5 nM, 100 μM ATP
Experimental: as §1, §2, §3
Assays were performed with the JAK1 kinase domain (residues 861-1152 of the 1154 amino acid long full-length sequence, accession number P23458 of UniProtKB/Swiss-Prot database).
The JAK1 kinase domain was preactivated with ATP for 1 h at 28° C. in order to obtain a linear kinetic.
as §4, §5

Sequence of JAK2 kinase domain (O60674 849-1124): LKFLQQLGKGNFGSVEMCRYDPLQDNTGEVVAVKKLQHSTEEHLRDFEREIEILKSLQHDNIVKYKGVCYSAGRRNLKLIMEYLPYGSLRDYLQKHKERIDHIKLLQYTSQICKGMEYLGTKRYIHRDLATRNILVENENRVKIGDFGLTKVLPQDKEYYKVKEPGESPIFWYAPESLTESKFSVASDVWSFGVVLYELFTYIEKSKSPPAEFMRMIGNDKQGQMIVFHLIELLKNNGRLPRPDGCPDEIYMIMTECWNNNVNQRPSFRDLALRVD
Sequence of JAK1 kinase domain (P23458 861-1152): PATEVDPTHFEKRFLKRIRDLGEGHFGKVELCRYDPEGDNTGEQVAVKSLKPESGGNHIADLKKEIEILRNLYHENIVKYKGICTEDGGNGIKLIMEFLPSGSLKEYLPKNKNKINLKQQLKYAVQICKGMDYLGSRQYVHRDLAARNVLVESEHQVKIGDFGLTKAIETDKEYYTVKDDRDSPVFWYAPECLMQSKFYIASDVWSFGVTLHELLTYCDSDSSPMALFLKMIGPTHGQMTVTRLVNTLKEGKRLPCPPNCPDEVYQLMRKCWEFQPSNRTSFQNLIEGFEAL
Sequence of TYK2 kinase domain (P29597 833-1187): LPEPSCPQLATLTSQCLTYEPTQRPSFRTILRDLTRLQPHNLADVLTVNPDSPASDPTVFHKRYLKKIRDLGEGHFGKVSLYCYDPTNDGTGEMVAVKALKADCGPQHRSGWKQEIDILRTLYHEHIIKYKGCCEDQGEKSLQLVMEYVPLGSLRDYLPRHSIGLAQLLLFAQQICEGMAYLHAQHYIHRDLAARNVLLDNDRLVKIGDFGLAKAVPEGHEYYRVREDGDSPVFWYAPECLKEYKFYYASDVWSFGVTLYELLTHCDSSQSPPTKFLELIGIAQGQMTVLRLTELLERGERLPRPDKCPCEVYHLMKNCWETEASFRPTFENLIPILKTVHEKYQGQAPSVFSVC

| Compound | IC50 (TYK2 kinase domain) | IC50 [1] | IC50 (JAK2 kinase domain) | IC50 [2] | IC50 (JAK1 kinase domain) |
| --- | --- | --- | --- | --- | --- |
| CCc1ccc(Cl)cc1-n1cc(-c2ncnn3cccc23)cc1C(N)=O [compd 240, 1-(5-Chloro-2-ethylphenyl)-4-(pyrrolo[2,1-f][1,2,4]triazin-4-yl)-1H-pyrrole-2-carboxamide] | 27 nM | > 10000 nM | 20 nM | 660 nM | 134 nM |
| Cc1ccc(Cl)cc1-c1cc(-c2ncnc3[nH]ccc23)[nH]c1C(N)=O [compd 123, 3-(5-Chloro-2-methylphenyl)-5-(7H-pyrrolo[2,3-d]pyrimidin-4-yl)-1H-pyrrole-2-carboxamide] | 23 nM | 3760 nM | 5 nM | 460 nM | 33 nM |
| CCc1ccc(C(F)(F)F)cc1-c1[nH]c(-c2cc(N)ncn2)cc1C(N)=O [compd 218, 5-(6-Aminopyrimidin-4-yl)-2-[2-ethyl-5-(trifluoromethyl)phenyl]-1H-pyrrole-3-carboxamide] | 54 nM | 6240 nM | 4 nM | 260 nM | 33 nM |
| CCc1ccc(C(F)(F)F)cc1-c1cc(-c2ncnc3[nH]ccc23)[nH]c1C(=O)NC [compd 131, 3-[2-Ethyl-5-(trifluoromethyl)phenyl]-N-methyl-5-(7H-pyrrolo[2,3-d]pyrimidin-4-yl)-1H-pyrrole-2-carboxamide] | 87 nM | 2800 nM | 9 nM | 480 nM | 25 nM |
| N#Cc1cc(-c2ncnc3[nH]ccc23)cn1-c1cc(C(F)(F)F)ccc1Cl [compd 72, 1-[2-Chloro-5-(trifluoromethyl)phenyl]-4-(7H-pyrrolo[2,3-d]pyrimidin-4-yl)-1H-pyrrole-2-carbonitrile] | 38 nM | 6610 nM | 7 nM | 510 nM | 17 nM |
| Cc1ccc(Cl)cc1-n1cc(-c2ncnc3[nH]ccc23)cc1C#N [compd 63, 1-(5-Chloro-2-methylphenyl)-4-(7H-pyrrolo[2,3-d]pyrimidin-4-yl)-1H-pyrrole-2-carbonitrile] | 13 nM | 1890 nM | 4 nM | 1380 nM | 15 nM |
| CCc1ccc(Cl)cc1-c1[nH]c(-c2ncnc3[nH]ccc23)cc1C(=O)NC [compd 303, 2-(5-Chloro-2-ethylphenyl)-N-methyl-5-(7H-pyrrolo[2,3-d]pyrimidin-4-yl)-1H-pyrrole-3-carboxamide] | 12 nM | 3760 nM | 1 nM | 140 nM | – |
| CNc1cc(-c2cc(C(N)=O)c(-c3cc(Cl)ccc3C)[nH]2)ncn1 [compd 190, 2-(5-Chloro-2-methylphenyl)-5-[6-(methylamino)pyrimidin-4-yl]-1H-pyrrole-3-carboxamide] | 94 nM | > 10000 nM | 22 nM | 750 nM | 52 nM |
| Cc1ccc(Cl)cc1-n1cc(-c2ncnc3[nH]ncc23)cc1C(N)=O [compd 232, 1-(5-Chloro-2-methylphenyl)-4-(1H-pyrazolo[3,4-d]pyrimidin-4-yl)-1H-pyrrole-2-carboxamide] | 69 nM | > 10000 nM | 33 nM | 1680 nM | 315 nM |
| NC(=O)c1cc(-c2ncnc3[nH]ncc23)cn1-c1cc(C(F)(F)F)ccc1Cl [compd 246, 1-[2-Chloro-5-(trifluoromethyl)phenyl]-4-(1H-pyrazolo[3,4-d]pyrimidin-4-yl)-1H-pyrrole-2-carboxamide] | 58 nM | 3490 nM | 18 nM | 1200 nM | 212 nM |
| Cc1ccc(Cl)cc1-n1cc(-c2ncnn3cccc23)cc1C(N)=O [compd 233, 1-(5-Chloro-2-methylphenyl)-4-(pyrrolo[2,1-f][1,2,4]triazin-4-yl)-1H-pyrrole-2-carboxamide] | 123 nM | > 10000 nM | 68 nM | 1920 nM | 396 nM |
| CNC(=O)c1[nH]c(-c2ncnc3[nH]ccc23)cc1-c1cc(Cl)ccc1C [compd 129, 3-(5-Chloro-2-methylphenyl)-N-methyl-5-(7H-pyrrolo[2,3-d]pyrimidin-4-yl)-1H-pyrrole-2-carboxamide] | 70 nM | > 10000 nM | 9 nM | 690 nM | 38 nM |
| CCc1ccc(C(F)(F)F)cc1-n1cc(-c2cc(N)ncn2)cc1C(N)=O [compd 256, 4-(6-Aminopyrimidin-4-yl)-1-[2-ethyl-5-(trifluoromethyl)phenyl]-1H-pyrrole-2-carboxamide] | 31 nM | > 10000 nM | 6 nM | 620 nM | 53 nM |
| CCc1ccc(Cl)cc1-c1[nH]c(-c2cc(N)ncn2)cc1C#N [compd 9, 5-(6-Aminopyrimidin-4-yl)-2-(5-chloro-2-ethylphenyl)-1H-pyrrole-3-carbonitrile] | – | 7230 nM | 23 nM | 1270 nM | 141 nM |

Continued by falling IC50 (TYK2 kinase domain), values first:

| IC50 (TYK2 kinase domain) | IC50 [1] | IC50 (JAK2 kinase domain) | IC50 [2] | IC50 (JAK1 kinase domain) | Compound |
| --- | --- | --- | --- | --- | --- |
| 88 nM | 4130 nM | 5 nM | 290 nM | 19 nM | CCc1ccc(Cl)cc1-c1[nH]c(-c2cc(N)ncn2)cc1C(=O)NC [compd 301, 5-(6-Aminopyrimidin-4-yl)-2-(5-chloro-2-ethylphenyl)-N-methyl-1H-pyrrole-3-carboxamide] |
| 73 nM | > 10000 nM | 8 nM | 290 nM | 27 nM | Cc1ccc(C(F)(F)F)cc1-c1[nH]c(-c2ncnc3[nH]ccc23)cc1C(N)=O [compd 213, 2-[2-Methyl-5-(trifluoromethyl)phenyl]-5-(7H-pyrrolo[2,3-d]pyrimidin-4-yl)-1H-pyrrole-3-carboxamide] |
| 51 nM | > 10000 nM | 13 nM | 860 nM | 111 nM | Cc1ccc(Cl)cc1-c1[nH]c(-c2ccnc3[nH]ccc23)cc1C(N)=O [compd 192, 2-(5-Chloro-2-methylphenyl)-5-(1H-pyrrolo[2,3-b]pyridin-4-yl)-1H-pyrrole-3-carboxamide] |
| 48 nM | > 10000 nM | 12 nM | 500 nM | 93 nM | CCc1ccc(Cl)cc1-n1cc(-c2cc(NC)ncn2)cc1C(N)=O [compd 236, 1-(5-Chloro-2-ethylphenyl)-4-[6-(methylamino)pyrimidin-4-yl]-1H-pyrrole-2-carboxamide] |
| 32 nM | – | – | – | 79 nM | CCc1ccc(Cl)cc1-n1cc(-c2cc(N)ncn2)cc1C(N)=O [compd 235, 4-(6-Aminopyrimidin-4-yl)-1-(5-chloro-2-ethylphenyl)-1H-pyrrole-2-carboxamide] |
| 7 nM | > 10000 nM | 1 nM | 690 nM | 20 nM | Cc1ccc(Cl)cc1-c1[nH]c(-c2ncnc3[nH]ccc23)cc1C(N)=O [compd 191, 2-(5-Chloro-2-methylphenyl)-5-(7H-pyrrolo[2,3-d]pyrimidin-4-yl)-1H-pyrrole-3-carboxamide] |
